Results on five molecules are retold here after PubChem BioAssay (NCI).

Some test systems named below: A498 renal; A549 NSCLC; MOLT-4 leukemia; NCI-H226 lung; NCI-H460 lung; OVCAR-3 ovarian; SK-MEL-28 melanoma; SK-MEL-5 melanoma; SK-OV-3 ovarian; UO-31 renal.
What all share (experiment): NCI anticancer screen, dose series, 48 h

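96-well plates; 48 h exposure; 5 concentrations. Endpoints by linear interpolation between flanking doses. Not reached: highest tested concentration assigned. GI50 marks 50% less growth. At the TGI there is no net growth.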

`COC(=O)C1=C(O)C(O)=C(C(=O)OC)CC1`: the TGI in the assay on A498 renal, in the assay on A549 NSCLC, in the assay on MOLT-4 leukemia, in the assay with NCI-H226 lung, with NCI-H460 lung and in the assay on OVCAR-3 ovarian was more than 100 µM throughout. The TGI in the assay with SK-MEL-28 melanoma, with SK-MEL-5 melanoma, with SK-OV-3 ovarian and in the assay with UO-31 renal was more than 100 µM in each case.

On to `COc1ccc([C@H]2c3cc(OC)c(OC)cc3C=C(C=O)C2CO)cc1OC` (some centres undefined), for which the GI50 with A498 renal is 19 µM; in the assay with A549 NSCLC it was 52.5 µM; in the assay with MOLT-4 leukemia, more than 100 µM; in the assay with NCI-H226 lung, more than 100 µM; with NCI-H460 lung, 3.51 µM; in the assay with OVCAR-3 ovarian, 2.09 µM. The GI50 with SK-MEL-28 melanoma was 6.62 µM; with SK-MEL-5 melanoma, 3.51 µM; in the assay with SK-OV-3 ovarian, 4.23 µM; in the assay with UO-31 renal, 3.6 µM. For the same molecule, the TGI in the assay on A498 renal was more than 100 µM; in the assay on A549 NSCLC it was more than 100 µM; in the assay with MOLT-4 leukemia, more than 100 µM; in the assay with NCI-H226 lung, more than 100 µM; with NCI-H460 lung, more than 100 µM; in the assay with OVCAR-3 ovarian, 4.87 µM. The TGI in the assay with SK-MEL-28 melanoma, in the assay on SK-MEL-5 melanoma, with SK-OV-3 ovarian and in the assay on UO-31 renal was more than 100 µM throughout.

In the case of `CC(=O)NNc1nc(C)c(C(/C=C/c2ccc(/C=C/C(=N\NC(=O)c3ccncc3)c3sc(NNC(C)=O)nc3C)cc2)=N/NC(=O)c2ccncc2)s1`, the TGI in the assay on A498 renal, with A549 NSCLC, in the assay on MOLT-4 leukemia, in the assay on NCI-H226 lung, in the assay with NCI-H460 lung and in the assay on OVCAR-3 ovarian was more than 100 µM each time. The TGI in the assay with SK-MEL-28 melanoma, in the assay on SK-MEL-5 melanoma, in the assay on SK-OV-3 ovarian and in the assay on UO-31 renal was more than 100 µM each time.

`CC(=O)Oc1c(-c2ccccc2)[nH]c2cc([N+](=O)[O-])c(/C(Cl)=C/c3ccccc3)cc12`: the TGI with A498 renal is 23.6 µM; in the assay on A549 NSCLC, 44.5 µM; in the assay with MOLT-4 leukemia, 13.8 µM; with NCI-H226 lung it was 18.1 µM; in the assay with NCI-H460 lung, 70.2 µM; in the assay on OVCAR-3 ovarian it was 46.8 µM. Also, the TGI in the assay with SK-MEL-28 melanoma is 25.2 µM; in the assay with SK-MEL-5 melanoma, 3.75 µM; in the assay on SK-OV-3 ovarian, 83.9 µM; in the assay with UO-31 renal, 27.6 µM.

In the case of `C=C1C(=O)O[C@@H]2[C@@H]3O[C@@](C)(CC/C=C(\C)CCC[C@@H]2C)[C@H](O)C[C@@H]13`, the GI50 with A498 renal was 8.87 µM; in the assay with A549 NSCLC it was 3.73 µM; with MOLT-4 leukemia it was 2.75 µM; in the assay with NCI-H226 lung, 12.5 µM; with OVCAR-3 ovarian it was 1.7 µM; with SK-MEL-28 melanoma it was 3.13 µM. Moreover, the results for the GI50 in the assay on SK-MEL-5 melanoma, in the assay with SK-OV-3 ovarian and with UO-31 renal were 1.72 µM, 13.1 µM and 1.4 µM, respectively. For the same molecule, the TGI stood at 21.3 µM in the assay on A498 renal; 14.7 µM in the assay on A549 NSCLC; 7.64 µM with MOLT-4 leukemia; 26.3 µM with NCI-H226 lung; 31.6 µM in the assay on NCI-H460 lung; 3.34 µM in the assay on OVCAR-3 ovarian. Also, the TGI turned out to be 12.2 µM with SK-MEL-28 melanoma, 3.49 µM with SK-MEL-5 melanoma, 25.8 µM in the assay on SK-OV-3 ovarian and 2.93 µM with UO-31 renal.
